Data: patent US8506997B2, “Pharmaceutical compound containing silymarin and carbopol, its manufacturing process and its use as a regenerator of the pancreatic tissue and cells of endogenous secretion damaged by diabetes mellitus” (Universidad Autonoma Metropolitana, priority 2002, dated 2013)

What was measured:
Type in all cases: in vivo
[1] = system: serum glucose; experiment: Determination of serum glucose (ortho-toluidine method) in Alloxan-induced Diabetes Mellitus; details: 20 days after Alloxan, before starting the treatment with the Silymarin and Carbopol compound
Protocol: (§1) The treatment of the Silymarin and Carbopol combined with Alloxan was done in two ways. In the first case, a dose of 200 mg/Kg of the Silymarin and Carbopol compound was administered orally at 6, 24 and 48 hours (two days) after the first dose. In the second case, in addition to the dose mentioned in the first case, the administration was prolonged every 24 hours after the first dose for five more days (seven days). In both cases, the dose of Alloxan was 150 mg/Kg, which was administered subcutaneously one hour after the first dose of the Silymarin and Carbopol compound.
The determination of blood glucose was carried out by the Baner method. This consisted in taking 50 μl of serum to which 3.0 ml of ortho-toluidine reagent were added which reacts with aldohexoses and forms […] and a Schiff base, the green color developed has a maximum absorption at 620 nm and is proportional to the quantity of glucose present.
In the case of the combined administration of the Silymarin and Carbopol compound with Alloxan, the determination of serum glucose was done before the administration of the drugs and at 3, 5, 15 and 30 days after the treatment. […]

[2] = system: pancreatic tissue; experiment: Histopathological analysis of the pancreatic tissue (HE staining); details: treatment with Alloxan only
Protocol: as §1
This analysis was done in transversal fragments of pancreas approximately 0.7 cm long corresponding to the head of the organ. Subsequently, by the paraffin embedding technique, 5 μm sections where then obtained, which were stained with the dyes hematoxylin and eosin (HE). This technique consists in: 1) dehydration of the tissue, which is done by passing the tissue through different concentration of alcohol (from 25 to 100%) and then to an alcohol-toluene, toluene-paraffin and paraffin mixture. Once the tissues are dehydrated, blocks are formed with paraffin. 2) Sectioning of the tissue. This is done in a microtome, which is adjusted to the right section thickness of 4 to 6 μm and is placed in a slide. 3) Staining of the sections. This was done with the dyes hematoxylin and eosin. […]

[3] = system: islets of Langerhans; experiment: Immunohistochemical analysis for insulin and glucagon in the islets of Langerhans by confocal microscopy; details: treatment with Alloxan only (FIG. 1)
Protocol: as §1
This analysis is carried out on sections of pancreatic tissue (corresponding to the head of the pancreas). Once the sections have been obtained (described in example 3) they are placed on a slide and the tissue is then deparaffinated and rehydrated. It is begun in pure xylol, with two changes of 10 minutes each. The samples are then passed to a mixture of ethanol-xylol for 10 minutes and afterward to alcohols of different percentages: 100, 90, 80 and 70% for five minutes each. […] At the end of this time, they are flushed with PBS and incubated in a mixture of secondary antibodies coupled with fluorochromes, fluorescein and rhodamine, for one hour at ambient temperature and they are then mounted in a specific medium to preserve the fluorescence. The samples are analyzed by confocal microscopy. […]

[4] = system: glutathione peroxidase; experiment: Activity of pancreatic antioxidant enzymes: glutathione peroxidase; details: pancreas; Alloxan (20 days after its administration)
Protocol: (§2) A determination was made of the pancreatic activity of the antioxidant enzymes: superoxide dismutase, glutathione peroxidase and catalase. To do such determination, the pancreas was weighed, it was homogenized with a phosphate buffer 50 mM, it was centrifuged at 3000 rpm, and the supernatant was separated. The activities of the aforementioned enzymes was determined in this.
Glutathione peroxidase.—This quantification was done by the method of Prasad et al. (1992). This enzyme catalyzes the breakdown of H2O2 by the NADPH. Its activity is measured by the velocity of absorbance change during the conversion of NADPH to NADP^+ and this may be spectrophotometrically registered at […].

[5] = system: superoxide dismutase; experiment: Activity of pancreatic antioxidant enzymes: superoxide dismutase; details: pancreas; Alloxan (20 days after its administration)
Protocol: as §2
Superoxide dismutase.—This quantification was done by the method of Prasad et al. (1992). Superoxide ions are formed by xanthine and xanthine oxidase. These ions react with the tetrazolium blue and they form a colour compound that can be spectrophotometrically quantified at 560 nm. A unit of superoxide dismutase can inhibit the formation of this compound by 50%.

[6] = system: catalase; experiment: Activity of pancreatic antioxidant enzymes: catalase; details: pancreas; Alloxan (20 days after its administration)
Protocol: as §2
Catalase.—This quantification was carried out by the Aebi method (1995). This enzyme catalyzes the breakdown of H2O2 and the decomposition velocity of the oxygenated water is measured spectrophotometrically at 240 nm.

`O=C1NC(=O)C(=O)C(=O)N1` [Alloxan] was tested, and the “serum glucose concentration above the normal value” [1] was “approximately 400%”, the “histopathology of the pancreatic tissue” value [2] was “cellular disorganization with loss of the islets of Langerhans” and the “pancreatic islet, insulin and glucagon immunostaining” value [3] was “destruction occurred of the pancreatic islet”. The “Enzymatic activity Glutathione Peroxidase” value [4] was 0.016 ± .002 μM NADPH/min/mg prot, the “Enzymatic activity Superoxide Dismutase” value [5] was 4.3 ± 0.02 U/mg protein and the “Enzymatic activity Catalase” value [6] was 0.01 ± 0.002 k/sec/mg of protein.
